In PubChem BioAssay AID2060512 (Molecular Pharmacology Branch, DTP, NCI, 2025):

Tested on: 186277-243-T-J2-PDC complex spheroid viability
Experiment: Anticancer human tumor 186277-243-T-J2-PDC patient-derived colon adenocarcinoma cell line growth inhibition [GQUAD]
Details: for IC50: curve of first compound; for viability, T/C: stronger effect = lower value
Source text: DNA G-quadruplex Stabilizer Agents in Combinations in Complex Spheroids
A high-throughput screen of multi-cell type tumor spheroids was designed to identify active combinations of DNA G-quadruplex stabilizer agents and targeted small molecules. Complex spheroids include a stromal component modeled by human endothelial cells (HUVEC) and fibroblasts modeled by human mesenchymal stem cells (MSCs). The concentration ranges selected for each drug and investigational agent were based upon clinically achievable concentrations if the clinical Cmax of the agent was known.
Compounds. The drugs and investigational agents: pidnarulex (CX-5461; NSC782164), APTO-253 (NSC789042), BRACO-19 (NSC847499), peposertib (NSC802822), ceralasertib (NSC780249), elimusertib (NSC800525), camonsertib (NSC841442), AZD-1390 (NSC803789), olaparib (NSC753686), talazoparib (NSC767125), ART-558 (NSC835418), sotorasib (NSC818433), MRTX-1133 (NSC836407), SN-38 (NSC673596), topotecan (NSC609699), etoposide (NSC141540), doxorubicin (NSC123127), gemcitabine (NSC613327), 5-fluorouracil (NSC19893), paclitaxel (NSC125973), vemurafenib (NSC761431), panobinostat (NSC761190), R-306465 (JNJ-16241199; NSC773264), adavosertib (NSC754352), TP-3654 (NSC805149), carboplatin (NSC241240), KSQ-4279 (NSC840948), and staurosporine (NSC755774) were obtained from the National Cancer Institute (NCI) Developmental Therapeutics Program Chemical Repository (34). The FDA-approved anticancer drug set is available from the NCI Developmental Therapeutics Program. […] The stock solutions were prepared in dimethyl sulfoxide (DMSO, Sigma-Aldrich, St. Louis, MO, cat. D2650) at 800-fold the tested concentration and stored at -70 degrees C prior to their use. All drugs and investigational agents were tested over a range starting from a high concentration at or near the clinical Cmax and decreasing in half-log increments. If the clinical Cmax for an agent had not been determined, the highest concentration tested was 10 microM.
2.3 Cell Culture. All cells were maintained in an incubator at 37 degrees C and 5% CO2 with 95% humidity. The PDC lines were cultured according to standard operating procedures established by the NCI PDMR. All PDCs were thawed and cultured in Matrigel-coated flasks prepared with a working solution of 1X Ham's F-12 nutrient mix, without supplementation (Invitrogen, cat. 11765054), 100 U/mL penicillin-streptomycin (Invitrogen, cat. 15140122), and 2.5% Matrigel (Corning Inc., cat. 354248) for the first three passages. The 857933-349-R-J2-PDC line was cultured in 6C/Colon 1B media, which includes advanced DMEM/F-12 (Thermo Fisher Scientific, cat. 12634028), 10 mM HEPES (Thermo Fisher Scientific, cat. 15630080), 1X GlutaMAX supplement (Thermo Fisher Scientific, cat. 35050061), 0.1 mg/mL primocin (InvivoGen, cat. ant-pm-2), 10% defined fetal bovine serum, heat inactivated (HyClone Laboratories Inc., cat. SH30070.03HI), 50% L-WRN conditioned media (ATCC, cat. CRL-3276), 1.25 mM N-Acetyl-L-cysteine (Sigma-Aldrich, cat. A9165), 10 mM nicotinamide (Sigma-Aldrich, cat. N0636), 1X B-27 supplement (Thermo Fisher Scientific, cat. 17504044), 1X N-2 supplement (Thermo Fisher Scientific, cat. 17502048), 10 microM Y-27632 dihydrochloride (Tocris Bioscience, cat. 1254), and 50 ng/mL human EGF recombinant protein (Thermo Fisher Scientific, cat. PHG0311). The 485176-168-R4-J1-PDC line was cultured in Panc media, which includes all 6C/Colon 1B media components plus 100 ng/mL human FGF-10 (Thermo Fisher Scientific, cat. 100-26), 500 nM SB-431542 (Selleckchem, cat. S1067), and gastrin (Tocris, cat. 3006).
[…]

[1] = second compound 0.0316 µM, first compound 0.0316 µM
[2] = second compound 0.0316 µM, first compound 0.1 µM
[3] = second compound 0.0316 µM, first compound 0.316 µM
[4] = second compound 0.0316 µM, first compound 1 µM
[5] = second compound 0.0316 µM, first compound 3.16 µM
[6] = second compound 0.0316 µM, first compound 10 µM
[7] = second compound 0.1 µM, first compound 0.0316 µM
[8] = second compound 0.1 µM, first compound 0.1 µM
[9] = second compound 0.1 µM, first compound 0.316 µM
[10] = second compound 0.1 µM, first compound 1 µM
[11] = second compound 0.1 µM, first compound 3.16 µM
[12] = second compound 0.1 µM, first compound 10 µM
[13] = second compound 0.316 µM, first compound 0.0316 µM
[14] = second compound 0.316 µM, first compound 0.1 µM
[15] = second compound 0.316 µM, first compound 0.316 µM
[16] = second compound 0.316 µM, first compound 1 µM
[17] = second compound 0.316 µM, first compound 3.16 µM
[18] = second compound 0.316 µM, first compound 10 µM
[19] = second compound 1 µM, first compound 0.0316 µM
[20] = second compound 1 µM, first compound 0.1 µM
[21] = second compound 1 µM, first compound 0.316 µM
[22] = second compound 1 µM, first compound 1 µM
[23] = second compound 1 µM, first compound 3.16 µM
[24] = second compound 1 µM, first compound 10 µM
[25] = second compound 3.16 µM, first compound 0.0316 µM
[26] = second compound 3.16 µM, first compound 0.1 µM
[27] = second compound 3.16 µM, first compound 0.316 µM
[28] = second compound 3.16 µM, first compound 1 µM
[29] = second compound 3.16 µM, first compound 3.16 µM
[30] = second compound 3.16 µM, first compound 10 µM
[31] = second compound 10 µM, first compound 0.0316 µM
[32] = second compound 10 µM, first compound 0.1 µM
[33] = second compound 10 µM, first compound 0.316 µM
[34] = second compound 10 µM, first compound 1 µM
[35] = second compound 10 µM, first compound 3.16 µM
[36] = second compound 10 µM, first compound 10 µM
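Also: spheroids exposed to drugs for 7 days.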
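For viability, T/C in this document: 100% = DMSO vehicle control viability.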

## CC1COCCN1c1cc(C2(O)CC3CCC(C2)O3)c2cnn(-c3ccn[nH]3)c2n1 (stereo unspecified) + CN(C)c1ccc(Nc2c3ccc(NC(=O)CCN4CCCC4)cc3nc3cc(NC(=O)CCN4CCCC4)ccc23)cc1
Second compound 0.0316 µM
  IC50: 32.6 nM
Second compound 0.1 µM
  IC50: 33.1 nM
Second compound 0.316 µM
  IC50: 34.7 nM
Second compound 1 µM
  IC50: < 31.6 nM
Second compound 3.16 µM
  IC50: < 31.6 nM
Second compound 10 µM
  IC50: < 31.6 nM
[1]
  viability, T/C: 51.2%
[2]
  viability, T/C: 8.79%
[3]
  viability, T/C: 6.01%
[4]
  viability, T/C: 4%
[5]
  viability, T/C: 5.01%
[6]
  viability, T/C: 3.88%
[7]
  viability, T/C: 51.8%
[8]
  viability, T/C: 12%
[9]
  viability, T/C: 7.24%
[10]
  viability, T/C: 3.82%
[11]
  viability, T/C: 4.81%
[12]
  viability, T/C: 3.87%
[13]
  viability, T/C: 53.7%
[14]
  viability, T/C: 8.92%
[15]
  viability, T/C: 4.46%
[16]
  viability, T/C: 3.99%
[17]
  viability, T/C: 5.18%
[18]
  viability, T/C: 3.41%
[19]
  viability, T/C: 42.9%
[20]
  viability, T/C: 9.66%
[21]
  viability, T/C: 5.45%
[22]
  viability, T/C: 4.14%
[23]
  viability, T/C: 5.22%
[24]
  viability, T/C: 3.81%
[25]
  viability, T/C: 47%
[26]
  viability, T/C: 12.8%
[27]
  viability, T/C: 5.73%
[28]
  viability, T/C: 3.69%
[29]
  viability, T/C: 4.72%
[30]
  viability, T/C: 3.34%
[31]
  viability, T/C: 46.5%
[32]
  viability, T/C: 11.9%
[33]
  viability, T/C: 6.88%
[34]
  viability, T/C: 3%
[35]
  viability, T/C: 3.63%
[36]
  viability, T/C: 2.56%

## CC1COCCN1c1cc(C2(S(C)(=N)=O)CC2)nc(-c2ccnc3[nH]ccc23)n1 (stereo unspecified) + CN(C)c1ccc(Nc2c3ccc(NC(=O)CCN4CCCC4)cc3nc3cc(NC(=O)CCN4CCCC4)ccc23)cc1
Second compound 0.0316 µM
  IC50: 803 nM
Second compound 0.1 µM
  IC50: 749 nM
Second compound 0.316 µM
  IC50: 1350 nM
Second compound 1 µM
  IC50: 972 nM
Second compound 3.16 µM
  IC50: 986 nM
Second compound 10 µM
  IC50: 840 nM
[1]
  viability, T/C: 95.5%
[2]
  viability, T/C: 100%
[3]
  viability, T/C: 117%
[4]
  viability, T/C: 37.2%
[5]
  viability, T/C: 8.85%
[6]
  viability, T/C: 6.06%
[7]
  viability, T/C: 105%
[8]
  viability, T/C: 102%
[9]
  viability, T/C: 89.4%
[10]
  viability, T/C: 37%
[11]
  viability, T/C: 7.6%
[12]
  viability, T/C: 5.85%
[13]
  viability, T/C: 85.2%
[14]
  viability, T/C: 99.5%
[15]
  viability, T/C: 92.7%
[16]
  viability, T/C: 65.2%
[17]
  viability, T/C: 7.48%
[18]
  viability, T/C: 5.05%
[19]
  viability, T/C: 91%
[20]
  viability, T/C: 89.8%
[21]
  viability, T/C: 96.2%
[22]
  viability, T/C: 48.9%
[23]
  viability, T/C: 8.32%
[24]
  viability, T/C: 5.51%
[25]
  viability, T/C: 91%
[26]
  viability, T/C: 103%
[27]
  viability, T/C: 98.8%
[28]
  viability, T/C: 49.4%
[29]
  viability, T/C: 7.66%
[30]
  viability, T/C: 5.17%
[31]
  viability, T/C: 85.3%
[32]
  viability, T/C: 94%
[33]
  viability, T/C: 110%
[34]
  viability, T/C: 41.7%
[35]
  viability, T/C: 9.87%
[36]
  viability, T/C: 5.6%

## COc1ccc([C@@H](O)c2cc(-c3ncnc4cc(N5CCOCC5)ccc34)c(F)cc2Cl)nn1 + CN(C)c1ccc(Nc2c3ccc(NC(=O)CCN4CCCC4)cc3nc3cc(NC(=O)CCN4CCCC4)ccc23)cc1
Second compound 0.0316 µM
  IC50: 3940 nM
Second compound 0.1 µM
  IC50: 5030 nM
Second compound 0.316 µM
  IC50: 4100 nM
Second compound 1 µM
  IC50: 4450 nM
Second compound 3.16 µM
  IC50: 4330 nM
Second compound 10 µM
  IC50: 2310 nM
[1]
  viability, T/C: 102%
[2]
  viability, T/C: 102%
[3]
  viability, T/C: 117%
[4]
  viability, T/C: 75.9%
[5]
  viability, T/C: 59.8%
[6]
  viability, T/C: 26.2%
[7]
  viability, T/C: 112%
[8]
  viability, T/C: 96%
[9]
  viability, T/C: 90.1%
[10]
  viability, T/C: 85.2%
[11]
  viability, T/C: 73.3%
[12]
  viability, T/C: 22.5%
[13]
  viability, T/C: 95%
[14]
  viability, T/C: 92.7%
[15]
  viability, T/C: 104%
[16]
  viability, T/C: 82.3%
[17]
  viability, T/C: 57.8%
[18]
  viability, T/C: 26.3%
[19]
  viability, T/C: 86.5%
[20]
  viability, T/C: 93.2%
[21]
  viability, T/C: 89.2%
[22]
  viability, T/C: 110%
[23]
  viability, T/C: 62.8%
[24]
  viability, T/C: 19.9%
[25]
  viability, T/C: 98.3%
[26]
  viability, T/C: 87.5%
[27]
  viability, T/C: 108%
[28]
  viability, T/C: 96.4%
[29]
  viability, T/C: 61.1%
[30]
  viability, T/C: 20.4%
[31]
  viability, T/C: 91.3%
[32]
  viability, T/C: 88.1%
[33]
  viability, T/C: 111%
[34]
  viability, T/C: 81.1%
[35]
  viability, T/C: 37.9%
[36]
  viability, T/C: 7.76%
